# Assay results as given in ChEMBL document CHEMBL1150921, “Organochlorine compounds from a terrestrial higher plant: structures and origin of chlorinated orcinol derivatives from diseased bulbs of Lilium maximowiczii” (1998).
# The source made the active and inactive calls. The calls are words filed in the database; no cut-off is given here.
# What was measured:
# [1] = tested on: Bipolaris leersiae; test: Antifungal activity against Bipolaris leersiae assessed as inhibition of conidial germination at 50 ppm after 24 hrs by microscopy; assay type: functional, organism-based
# [2] = tested on: Bipolaris leersiae; test: Antifungal activity against Bipolaris leersiae assessed as inhibition of conidial germination at 100 ppm after 24 hrs by microscopy; assay type: functional
# [3] = tested on: Bipolaris leersiae; test: Antifungal activity against Bipolaris leersiae assessed as inhibition of conidial germination at 300 ppm after 24 hrs by microscopy; assay type: functional
# [4] = tested on: Bipolaris leersiae; test: Antifungal activity against Bipolaris leersiae assessed as inhibition of conidial germination at 500 ppm after 24 hrs by microscopy; assay type: functional
# [5] = tested on: Bipolaris leersiae; test: Antifungal activity against Bipolaris leersiae assessed as inhibition of conidial germination at 1000 ppm after 24 hrs by microscopy; assay type: functional, organism-based
# [6] = tested on: Bipolaris leersiae; test: Antifungal activity against Bipolaris leersiae assessed as inhibition of conidial germination at 10 ppm after 24 hrs by microscopy; assay type: functional
Structure (SMILES),Activity [1],Activity [2],Activity [3],Activity [4],inhibition at 100 ppm [2] [%],Activity [5],inhibition at 300 ppm [3] [%],inhibition at 500 ppm [4] [%],inhibition at 10 ppm [6] [%],Activity [6]
COc1c(O)c(C)c(Cl)c(OC)c1Cl,Active,Active,Active,Active,–,–,–,–,–,–
COc1cc(OC)c(Cl)c(C)c1Cl,–,inactive,–,–,–,–,–,–,–,–
Cc1cc(O)c(Cl)c(O)c1,–,–,Active,Active,80,–,–,–,–,–
Cc1cc(O)cc(O)c1 [ORCINOL],–,–,–,–,30,Active,30,80,–,–
COc1c(O)c(C)c(Cl)c(O)c1Cl,Active,Active,Active,Active,–,–,–,–,80,–
Cc1cc(O)cc(O)c1Cl,–,–,Active,Active,80,–,–,–,–,–
COc1c(Cl)c(C)c(Cl)c(O)c1Cl,Active,Active,Active,Active,–,–,–,–,–,Active
